The text below walks through data of patent US20060089375A1, “Pyrazolo[3,4-b] pyridine compounds, and their use as phosphodiesterase inhibitors” (priority 2002, published 2006).

The subject of the series is LPS-induced pulmonary neutrophilia and emetic episodes in the conscious ferret. Kind of series: In Vivo Assay 4: Therapeutic Index of PDE4 inhibitors in the conscious ferret (LPS neutrophilia and emesis). On the procedure: PDE4 inhibitors are prepared for oral (p.o.) administration by dissolving in a fixed volume (1 ml) of acetone and then adding cremophor to 20% of the final volume. Acetone is evaporated by directing a flow of nitrogen gas onto the solution. Once the acetone is removed, the solution is made up to final volume with distilled water. LPS is dissolved in phosphate buffered saline.
Male ferrets (Mustela Pulorius Furo, weighing 1-2 kg) are transported and allowed to acclimatise for not less than 7 days. The diet comprises SDS diet C pelleted food given ad lib with Whiskers™ cat food given 3 times per week. The animals are supplied with pasteurised animal grade drinking water changed daily.
PDE4 inhibitors are administered orally (p.o.), using a dose volume of 1 ml/kg. Ferrets are fasted overnight but allowed free access to water. The animals are orally dosed with vehicle or PDE 4 inhibitor using a 15 cm dosing needle that is passed down the back of the throat into the oesophagus. After dosing, the animals are returned to holding cages fitted with perspex doors to allow observation, and given free access to water. The animals are constantly observed and any emetic episodes (retching and vomiting) or behavioural changes are recorded. The animals are allowed access to food 60-90 minutes after p.o. dosing.
Thirty minutes after oral dosing with compound or vehicle control, the ferrets are placed into sealed perspex containers and exposed to an aerosol of LPS (30 μg/ml) for 10 minutes. Aerosols of LPS are generated by a nebuliser (DeVilbiss, USA) and this is directed into the perspex exposure chamber. Following a 10-minute exposure period, the animals are returned to the holding cages and allowed free access to water, and at a later stage, food. General observation of the animals continues for a period of at least 2.5 hours post oral dosing. All emetic episodes and behavioural changes are recorded.
Six hours after LPS exposure the animals are killed by overdose of sodium pentobarbitone administered intraperitoneally. […] From this, the total number of neutrophils in the BAL sample is determined. […]

SMILES strings stand for the structures.

Take `O=C(Nc1c(Cl)cncc1Cl)c1ccc(OC(F)F)c(OCC2CC2)c1` [roflumilast]: the “Therapeutic index (TI), ferret Assay 4” value (D20 emesis / D50 neutrophilia, ferret p.o.) stood at 1.02. The D20 for emesis (p.o., ferret, dose giving 20% incidence of emesis) was 0.5 mg/kg. The molecule also showed a D50 for neutrophilia (p.o., ferret, dose giving 50% inhibition of LPS-induced pulmonary neutrophilia) of 0.49 mg/kg.
